# Test results published in patent US20170022288A9, “PANCREATIC CANCER ASSOCIATED ANTIGEN, ANTIBODY THERETO, AND DIAGNOSTIC AND TREATMENT METHODS” (priority 2003, published 2017).
# Assays:
# BMRPA1 cells [1] = assay: NNK exposure: effects on BMRPA1 morphology; type: cell-based, rat; details: for cytotoxic changes: one 16 hour exposure
# Procedure: All preparations of the carcinogen-containing media were made in a separate laboratory within a NCI-designed and certified chemical hood using prescribed protective measures. 4-(N-nitrosmethylamino)-1-(3-pyridyl)-1-butanone (NNK, American Health Foundation, N.Y.) was prepared as a stock solution of 10 mg NNK in PBS and added to FBS-free cRPMI to make final concentrations of 100, 50, 10, 5, and 1 μg/mil. BMRPA1 cells at passage 36 (p36) were seeded at 10^5/60 mm TCDs and allowed to grow for 6 d. At this time the medium was removed, and the cells were washed 2× with prewarmed (37° C.), FBS-free cRPMI before they were treated with FBS-free cRPMI (4 ml/TCD) containing the different concentrations of NNK. A 6th set of TCDs containing BMRPA1 cells was incubated in FBS-free cRPMI without NNK and was used as controls. The eight TCDs used for each of the six sets of different culture conditions were returned to the 37° C. and 95% air-5% CO2 incubator. After 16 h, the NNK-containing medium was removed from all TCDs and the cells were washed 3× with PBS followed by addition of fresh cRPMI-10% FBS (4 ml/TCD), and the incubation continued. Control cultures without NNK were processed in parallel. The cells were fed every 2 d by replacing ½ of the spent medium with fresh cRPMI-10% FBS. At full confluency the cells were collected from all TCDs, the cells in each group were pooled, and passaged at 2×10^4 into fresh TCDs.
# With the purpose of determining whether such changes are induced by a single exposure to NNK and at relatively small NNK concentrations, BMRPA1 cells were exposed for one 16 hour period to serum free medium containing 100, 50, 10, 5, and 1 μg NNK/mL. […] Furthermore, the gradual pace of these changes at 1 μg/mL allows a passage by passage study of both early and late events in the process of NNK-induced transformation. Thus, the results presented below were obtained with BMRPA1 cells exposed once for 16 h to 1 μg NNK/mL FBS-free medium.
# BMRPA1 cells [2] = assay: Anchorage independent colony formation on agar; type: cell-based, rat; details: NNK-treated BMRPA1 cells; days after seeding 9; 30 sequential 1 mm^2 fields, average of 5 TCFs ± SEM
# Procedure: Aliquots of 4 ml of 0.5% agar-medium mixture (agar was autoclaved in 64 mL H2O, cooled in a water bath to 50° C., and added to 15 mL 5× cRPMI, 19 mL FBS and 1 mL P/S) were poured into 25 cm^2 TCFs and allowed to harden overnight at 4° C. Prior to plating the cells, the flasks were placed in the COT-Air incubator for up to 5 h at 37° C. to facilitate equilibration of pH and temperature. Cells were collected by Trypsin-EDTA, 0.1 mL, of cell suspension (40000/mL cells in cRPMI) was dispersed carefully over the agar surface of each flask and the cultures were returned to the 37° C. incubator with […]-5% CO2. After 24 h, the agar-coated TCFs were inverted to allow drainage of excess medium. The cultures were examined microscopically after 9 d and 14 d for growth of colonies using a Zeiss inverted microscope.
# The ability of the cloned BMRPA.1NNK and untreated BMRPA1 cells to grow on agar was examined by dispersing cells at low density onto soft agar (see Example 1).
# Nu/Nu mice = assay: Tumorigenicity in Nu/Nu mice; type: in vivo, mouse; details: 10^7 cloned BMRPA1.NNK cells injected s.c.
# Procedure: Nu/Nu mice (7 wks of age) were obtained from Harlan laboratories (Indianapolis, Ind.). The cells used for injection were released by Trypsin-EDTA, washed in cRPMI, and resuspended in PBS at 10^8 cells/mL. Each mouse tested was injected subcutaneously (s.c.) with 0.1 ml of this cell suspension. The animals were inspected for tumor development daily during the first 4 weeks, and thereafter at weekly intervals. Small pieces of the tumors (1-2 mm.) were cut from the core of the tumors and placed in 4% pafaformaldehyde overnight at 4 C. The tissue was then washed in PBS, and placed in 30% sucrose for another 24 h. Sections of tumor tissue frozen in Lipshaw embedding matrix (Pittsburgh, Pa.) were made with a Jung cryostat (Leica), placed on gelatin coated slides, and stored at −20 C. H&E staining was done according to standard procedures.
# Cells growing on agar often have the ability to grow as tumors in Nu/Nu mice (Shin et al., 1975; Colburn et al., 1978). The ability of cells to grow in Nu/Nu mice as tumors is believed to be a strong indication of malignant transformation (Chung, 1986). Consequently, 10^7 cloned, live BMRPA1.NNK cells were injected subcutaneously (s.c.) in the posterior flank region of Nu/Nu mice. Another group of mice was injected s.c. under similar conditions with untransformed BMRPA1 cells. […]
# BMRPA1 cells [3] = assay: BrdU incorporation (FACS); type: cell-based, rat; details: NNK-treated vs untransformed BMRPA1 cells
# Procedure: Cells (5×10^4) were plated in 60 mm TCD, and allowed to grow in cRPMI-10% FBS. […] Briefly, 10^6 trypsin-EDTA released cells were washed twice in PBS-1% BSA, fixed in 70% ethanol for 30 min, and resuspended in RNAase A (0.1 mg/mL) for 30 min at 37° C. After washing the cells, their DNA was denatured with 2N HCl/Triton X-100 for 30 min, and neutralized with 0.1 M Na2B4O7.10H2O, pH 8.5. The cells were then washed in PBS-1% BSA with 0.5% Tween 20, and resuspended in 50 uL of 0.5% Tween in PBS-1% BSA solution with 20 uL of FITC-AntiBrdU antibody. After 45 min at 37° C., the cells were washed, resuspended in 1 mL of Na Citrate buffer containing Propidium Iodide (0.005 mg/mL) and RNAase A (0.1 mg/mL). Fluorescent activated cell sorting or flow cytometry (FACS) analysis to detect the incorporated BrdU and PI staining was performed by using a FACScan analyzer from Becton Dickinson Co. equipped with an Argon ion laser using excitation wavelength of 488 nm. Data analysis was performed using the LYSYS II program.
# The measurement of BrdU incorporation in RNAase treated cells is routinely used to assess DNA synthesis during the S phase of proliferating cells (Alberts B., Johnson, A., Lewis, J., Raff, M., Roberts, K., Walter, P., 2002, Molecular Biology of the Cell. Garland Science, Taylor and Francis, 4th ed., NY). […]
# BMRPA1 cells [4] = assay: Cell growth at reduced serum (crystal violet assay); type: cell-based, rat; details: NNK-transformed vs untreated BMRPA1 cells, 12 days
# Procedure: To measure cell growth at 10% FBS, cells were seeded at 5×10^4 cell/60 mm TCD containing 4 ml of cRPMI-10% FBS. Every 3 d, triplicate TCDs were removed for each cell line under study, the cells were released with trypsin-EDTA, and counted in the presence of trypan blue. To assess the effect of cRPMI containing reduced FBS concentrations on cell growth, equal numbers (1.5×10^4 cell/ml/well) of NNK-treated and untreated BMRPA1 cells were seeded in triplicate wells of 24 well TCDs. The cells were allowed to adhere overnight in cRPMI 10% FBS, washed with PBS, and reincubated with cRPMI containing the indicated % FBS. Cell growth was evaluated by a modification of the crystal violet relative proliferation assay (Serrano, 1997). Briefly, the cells were washed with PBS, fixed in 10% buffered formalin followed by rinsing with distilled water. The cells were then stained with 0.1% Crystal Violet for 30 min at room temperature (RT), washed with dH2O, and dried. The cell-associated dye was extracted with 1 ml 10% acetic acid, aliquots were diluted 1:2 with dH2O, and transferred to 96-well microtiter plates for OD600nm measurements. The cell growth was calculated relative to the OD600nm values read at 24 h. […]
compound,measurement,setting,value
"CN(CCCC(=O)c1cccnc1)N=O [NNK, 4-(methyl-nitrosamino)-1-(3-pyridyl)-1-butanone]",phenotypical changes (neoplastic transformation),"BMRPA1 cells [1]; 1 μg/ml, slower rate, over several weeks",phenotypical changes characteristic of neoplastic transformation
same,cytotoxic changes,"BMRPA1 cells [1]; 5, and 1 μg NNK/mL",considerably less
same,phenotypical changes (neoplastic transformation),"BMRPA1 cells [1]; 100, 50, 10 μg NNK/ml, within a week",phenotypical changes indicative of neoplastic transformation
same,cytotoxic changes,"BMRPA1 cells [1]; larger concentrations (100, 50, 10 μg NNK/mL), serum free medium",cylotoxic changes
same,# of colonies* formed <50 cells,BMRPA1 cells [2],14
same,# of colonies* formed >50 cells,BMRPA1 cells [2],15.8 ± 2.5
same,# of colonies* formed Total,BMRPA1 cells [2],17.3 ± 5.2
same,# of mice with metastasis/# of mice tested,Nu/Nu mice,1/6
same,# of mice with tumor/# of mice tested,Nu/Nu mice,3/6
same,proliferative changes (BrdU incorporation),BMRPA1 cells [3],permanent hyperproliferative changes
same,"cell growth at 1%, 5%, and 10% FBS",BMRPA1 cells [4],selective growth advantage
